Assay results: patent publication US20220079966A1, “HYALURONAN SYNTHESIS INHIBITION FOR TREATING AUTOIMMUNE, INFLAMMATORY, FIBROTIC, OR PROLIFERATIVE DISEASES OR DISORDERS” (The Board of Trustees of the Leland Stanford Junior …, priority 2018, published 2022)

Columns and labels:
[1] = HPLC of 4-MU and metabolites in serum of mice fed 4-MU chow for two weeks; assay type: in vivo; settings: mice fed 4-MU for two weeks
Description: As a result of efficient glucuronidation of 4-MU in the liver and intestines by multiple UDP-glucuronosyltransferases (UGTs), the predominant form present systemically in mice on oral 4-MU chow is 4-MUG, as has been reported previously (Mulder G J, et al., Biochem Pharmacol. 1985; 34(8):1325-1329). For example, FIG. 1A illustrates molecular structures for 4-MU and its primary metabolites, 4-MUG and 4-MUS. […] N=3 animals per group. […] N=3 animals per group.

[2] = Conversion of 4-MUG into fluorescent 4-MU in medium (fluorescence plate reader); assay type: in vitro ADME; settings: PBS with 10% FCS, monitored up to 72 hours
Procedure: Given the established activity of 4-MU leading to inhibition of HA synthesis, it seemed possible that the bioactivity of 4-MUG could be attributed to its hydrolysis into 4-MU. It is generally known that 4-MU is fluorescent while 4-MUG is not. In particular, 4-MU has an excitation wavelength of 380 nm and an emission wavelength of 454 nm in water.
Fluorescent values of 4-MUG were normalized to the 4-MU fluorescence. Referring to FIG. 2 B, 4-MU or 4-MUG was added to PBS with 10% FCS and the increase of fluorescence signal using a fluorescence plate reader was monitored at intervals up to 72 hours.

CHO-HAS3 cells = assay: HA production by CHO-HAS3 cells engineered to overexpress HAS3; assay type: cell-based; settings: 48 hours; non-hydrolyzable 4-MUG at comparable doses to 4-MU or conventional 4-MUG
Procedure: Samples were thawed and assayed for HA levels using a modified HA ELISA as previously described (Nagy N., et al., J. Clin. Invest. 2015; 125(10):3928-3940). Each sample was analyzed in triplicate with a mean value obtained per sample. For cell normalization, LI-COR CellTag™ 700 Stain was used according to the manufactures protocol.
To test whether 4-MUG has bioactivity independently of any possible conversion to 4-MU, a non-hydrolyzable version of 4-MUG was generated (FIG. 5A).

blood leukocytes = assay: Leukocyte 4-MU uptake in mice on oral 4-MU (flow cytometry, Pacific Blue channel); assay type: in vivo, C57Bl/6J mice; settings: blood leukocyte subsets, days 0, 2, 7, 14
Description: Next, the uptake of 4-MU by different leukocyte subsets was examined. To this end, mice were fed 4-MU and 4-MU signal was examined on blood leukocytes from representative animals at intervals of 0, 2, 7, and 14 days after the initiation of 4-MU treatment. […] Bold histograms depict signal in 4-MU treated mice, shaded histograms depict background Pacific Blue signal in untreated mice. Cell surface markers were stained to examine 4-MU uptake by multiple cell types, including CD4+ T-cells (CD3+CD4+), CD8+ T-cells (CD3+CD8+), B-cells (I-A/I-E+B220+) dendritic cells (DC; I-A/I-E+CD11c+), macrophages (Mc); I-A/I-E+CD11c−), neutrophils (Ly6G/C+CD14+) and monocytes (Ly6G/C-CD14+).
C57Bl/6J mice were treated with 4-MU and leukocytes from representative animals were isolated from the blood at baseline (before 4-MU treatment) and at intervals of 2, 7, and 14 days after the initiation of chow. […] To detect fluorescence emitted by 4-MU using flow cytometry on specific leukocyte subsets, peripheral blood red cells were lysed using Ammonium-Chloride-Potassium (ACK) buffer, and leukocytes were stained with the following fluorochrome-conjugated antibodies: BV650-CD3 (17-A2), BV785-CD4 (RM4-5), APC-CD11c (N418), PE-CD14 (Sa2-8), PE-Cy7-Ly-6G/C (RB6-8C5), PE-CyS. […] Samples were run on a BD™ LSRII flow cytometer (Beckon Dickinson) and data was analyzed using FlowJo software (TreeStar).

| median serum concentration of 4-MUG relative to parent compound 4-MU [1] | time from which fluorescence (conversion to 4-MU) could be detected [2] | time period of oral treatment required for leukocyte populations to take up 4-MU (blood leukocytes) | Compound | HA production by CHO-HAS3 cells (CHO-HAS3 cells) |
| --- | --- | --- | --- | --- |
| about 150 fold | around 30 hours |  | Cc1cc(=O)oc2cc(O[C@@H]3O[C@H](C(=O)O)[C@@H](O)[C@H](O)[C@H]3O)ccc12 [4-MUG, 4-methylumbelliferone-glucuronide] | directly inhibits HA synthesis |
|  |  | 1-2 weeks | Cc1cc(=O)oc2cc(O)ccc12 [4-MU, 4-methylumbelliferone] |  |
